Literature values as cited in PubChem BioAssay AID1259409 (Chemical Carcinogenesis Research Information System (CCRIS), 2018).

System: rodent chemically induced tumor inhibition, incidence and multiplicity
Experiment: CCRIS tumor inhibitor studies
Details: Dose [Inhibitor]: 0, Route [Inhibitor]: ORAL

In the case of `Oc1cccc(O)c1`, the “tumour outcome (control, treated, inhibition, significance)” value (Carcinogen: N-BIS(2-HYDROXYPROPYL)NITROSAMINE, 53609-64-6, 0.8% IN DIET FOR 30 WK BEGINNING POST CARCINOGEN TREATMENT (STUDY DURATION: 32 WK), Species: RAT, Strain/Sex: F344/MALE, Target Tissue: Type of Lesion: LUNG: ADENOMA, Dose [Carcinogen]: 0.1% IN DRINKING WATER FOR 2 WK, Promoter: NONE USED) is given as 100%, 90%, 10%, not calculated, the “tumour outcome (control, treated, inhibition, significance)” value (Carcinogen: N-BIS(2-HYDROXYPROPYL)NITROSAMINE, 53609-64-6, 0.8% IN DIET FOR 30 WK BEGINNING POST CARCINOGEN TREATMENT (STUDY DURATION: 32 WK), Species: RAT, Strain/Sex: F344/MALE, Target Tissue: Type of Lesion: THYROID: ADENOMA, Dose [Carcinogen]: 0.1% IN DRINKING WATER FOR 2 WK, Promoter: NONE USED) is given as 20%, 30%, -50%, not calculated and the “tumour outcome (control, treated, inhibition, significance)” value (Carcinogen: N-BIS(2-HYDROXYPROPYL)NITROSAMINE, 53609-64-6, 0.8% IN DIET FOR 30 WK BEGINNING POST CARCINOGEN TREATMENT (STUDY DURATION: 32 WK), Species: RAT, Strain/Sex: F344/MALE, Target Tissue: Type of Lesion: THYROID: CARCINOMA, Dose [Carcinogen]: 0.1% IN DRINKING WATER FOR 2 WK, Promoter: NONE USED) is given as 20%, 25%, -25%, not calculated. For the same compound, the “tumour outcome (control, treated, inhibition, significance)” value (Carcinogen: N-ETHYL-N-HYDROXYETHYLNITROSAMINE, 13147-25-6, 0.8% IN DIET FOR 36 WK BEGINNING 1 WK POST CARCINOGEN TREATMENT (STUDY DURATION: 40 WK), Species: RAT, Strain/Sex: WISTAR/MALE, Target Tissue: Type of Lesion: KIDNEY: MICROADENOMA, Dose [Carcinogen]: 0.1% IN DRINKING WATER FOR 3 WK, Promoter: NONE USED) was 11/17 (65%), 12/16 (75%), -15%, not significant, the “tumour outcome (control, treated, inhibition, significance)” value (Carcinogen: N-ETHYL-N-HYDROXYETHYLNITROSAMINE, 13147-25-6, 0.8% IN DIET FOR 36 WK BEGINNING 1 WK POST CARCINOGEN TREATMENT (STUDY DURATION: 40 WK), Species: RAT, Strain/Sex: WISTAR/MALE, Target Tissue: Type of Lesion: KIDNEY: RENAL CELL TUMOR, Dose [Carcinogen]: 0.1% IN DRINKING WATER FOR 3 WK, Promoter: NONE USED) was 14/17 (82%), 13/16 (81%), 1%, not significant and the “tumour outcome (control, treated, inhibition, significance)” value (Carcinogen: N-ETHYL-N-HYDROXYETHYLNITROSAMINE, 13147-25-6, 0.8% IN DIET FOR 36 WK BEGINNING 1 WK POST CARCINOGEN TREATMENT (STUDY DURATION: 40 WK), Species: RAT, Strain/Sex: WISTAR/MALE, Target Tissue: Type of Lesion: LIVER: HEPATOCELLULAR ADENOMA, Dose [Carcinogen]: 0.1% IN DRINKING WATER FOR 3 WK, Promoter: NONE USED) was 10/17 (59%), 7/16 (44%), 25%, not significant. For the same compound, the “tumour outcome (control, treated, inhibition, significance)” value (Carcinogen: N-ETHYL-N-HYDROXYETHYLNITROSAMINE, 13147-25-6, 0.8% IN DIET FOR 36 WK BEGINNING 1 WK POST CARCINOGEN TREATMENT (STUDY DURATION: 40 WK), Species: RAT, Strain/Sex: WISTAR/MALE, Target Tissue: Type of Lesion: LIVER: HEPATOCELLULAR CARCINOMA, Dose [Carcinogen]: 0.1% IN DRINKING WATER FOR 3 WK, Promoter: NONE USED) was 7/17 (41%), 3/16 (19%), 54%, not significant, the “tumour outcome (control, treated, inhibition, significance)” value (Carcinogen: N-NITROSOBIS(2-OXOPROPYL)AMINE, 60599-38-4, 1.5% IN DIET FOR 16 WK BEGINNING 2 WK POST CARCINOGEN TREATMENT (STUDY DURATION: 20 WK), Species: HAMSTER, Strain/Sex: SYRIAN/FEMALE, Target Tissue: Type of Lesion: GALL BLADDER: ADENOMA, Dose [Carcinogen]: 70 MG/KG IN SALINE FOLLOWED 2 WK LATER BY SECOND TREATMENT) was 9/18 (50%), 10/16 (62%), -24%, not calculated and the “tumour outcome (control, treated, inhibition, significance)” value (Carcinogen: N-NITROSOBIS(2-OXOPROPYL)AMINE, 60599-38-4, 1.5% IN DIET FOR 16 WK BEGINNING 2 WK POST CARCINOGEN TREATMENT (STUDY DURATION: 20 WK), Species: HAMSTER, Strain/Sex: SYRIAN/FEMALE, Target Tissue: Type of Lesion: GALL BLADDER: CARCINOMA, Dose [Carcinogen]: 70 MG/KG IN SALINE FOLLOWED 2 WK LATER BY SECOND TREATMENT) was 1/18 (6%), 1/16 (6%), 0%, not significant. The “tumour outcome (control, treated, inhibition, significance)” value (Carcinogen: N-NITROSOBIS(2-OXOPROPYL)AMINE, 60599-38-4, 1.5% IN DIET FOR 16 WK BEGINNING 2 WK POST CARCINOGEN TREATMENT (STUDY DURATION: 20 WK), Species: HAMSTER, Strain/Sex: SYRIAN/FEMALE, Target Tissue: Type of Lesion: LIVER: CHOLANGIOCARCINOMA, Dose [Carcinogen]: 70 MG/KG IN SALINE FOLLOWED 2 WK LATER BY SECOND TREATMENT) was 16/18 (89%), 12/16 (75%), 16%, not calculated, the “tumour outcome (control, treated, inhibition, significance)” value (Carcinogen: N-NITROSOBIS(2-OXOPROPYL)AMINE, 60599-38-4, 1.5% IN DIET FOR 16 WK BEGINNING 2 WK POST CARCINOGEN TREATMENT (STUDY DURATION: 20 WK), Species: HAMSTER, Strain/Sex: SYRIAN/FEMALE, Target Tissue: Type of Lesion: LIVER: NEOPLASTIC NODULE, Dose [Carcinogen]: 70 MG/KG IN SALINE FOLLOWED 2 WK LATER BY SECOND TREATMENT) was 18/18 (100%), 16/16 (100%), 0%, not significant and the “tumour outcome (control, treated, inhibition, significance)” value (Carcinogen: N-NITROSOBIS(2-OXOPROPYL)AMINE, 60599-38-4, 1.5% IN DIET FOR 16 WK BEGINNING 2 WK POST CARCINOGEN TREATMENT (STUDY DURATION: 20 WK), Species: HAMSTER, Strain/Sex: SYRIAN/FEMALE, Target Tissue: Type of Lesion: PANCREAS: ADENOCARCINOMA, Dose [Carcinogen]: 70 MG/KG IN SALINE FOLLOWED 2 WK LATER BY SECOND TREATMENT) was 14/18 (78%), 10/16 (63%), 19%, not calculated.
